The values that follow come from US20170334899A1, “AMINO-SUBSTITUTED ISOTHIAZOLES” (Bayer Pharma Aktiengesellschaft, priority 2014, published 2017).

The target of assay [1] is T1, CDK2/CycE (Homo sapiens, UniProt P24941).
T1 construct: GST; purchased ProQinase GmbH (Freiburg, Germany); host or cells: insect cells (Sf9)
Nature of the assay: CDK2/CycE kinase assay (TR-FRET). The following applies: avg, read-out: CDK2 avg (IC50 [mol/l]). The format is biochemical. The gist of the method:
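GST-tagged human CDK2 and CycE from Sf9 cells, preincubated 15 min with compound, then 25 min at 22° C. with 10 μM ATP and 0.75 μM biotinylated Rb-derived peptide (final). Phospho-substrate read by TR-FRET (anti-pRB pSer807/pSer811, Eu anti-mouse IgG, streptavidin-XL665), 665/620 nm ratio, normalised to no-inhibitor and no-enzyme controls.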
For orientation: In TR-FRET formats the signal depends on donor and acceptor labels being close together.

Assay [2] deals with T2, catalytic domain of human Bub1 (amino acids 704-1085) (Homo sapiens, UniProt O43683).
T2 construct: catalytic domain of human Bub1 (amino acids 704-1085); His6 (N); made in house; host or cells: insect cells (Hi5)
T2 sequence (O43683 704-1085): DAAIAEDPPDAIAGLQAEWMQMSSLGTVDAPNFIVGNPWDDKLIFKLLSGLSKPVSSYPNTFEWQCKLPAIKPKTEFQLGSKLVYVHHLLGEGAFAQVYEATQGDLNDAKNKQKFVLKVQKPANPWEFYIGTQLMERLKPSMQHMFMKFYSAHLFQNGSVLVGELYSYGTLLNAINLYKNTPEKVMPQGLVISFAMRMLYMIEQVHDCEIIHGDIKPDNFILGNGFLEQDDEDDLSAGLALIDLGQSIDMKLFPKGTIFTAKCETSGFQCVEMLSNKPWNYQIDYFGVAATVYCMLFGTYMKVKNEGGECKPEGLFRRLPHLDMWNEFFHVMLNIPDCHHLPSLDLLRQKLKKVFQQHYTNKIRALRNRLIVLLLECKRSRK
Nature of the assay: Bub1 kinase assay (TR-FRET). To be noted: 10 μM ATP, avg, read-out: Bub1 avg (IC50 [mol/l]). The format is biochemical. The gist of the method: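 Readout is the 665/620 nm TR-FRET ratio from anti-phosphoserine antibody, Eu-labelled anti-mouse IgG and streptavidin-XL665, scaled between no-enzyme and uninhibited controls. Reaction: 1 μM biotinylated peptide, 10 μM ATP, 60 min, 22 °C, after 15 min compound preincubation with His6-Bub1 (704-1085, insect-expressed, ~200 ng/ml).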

The structures appear in SMILES notation. Where “and” joins values, the source holds several entries; their conditions need not be identical. Equal entries are not always repeated.

Regarding `Cc1nsc(Nc2cnc(C(F)(F)F)cn2)c1C(=O)Nc1ccc(F)c(OC2CCN(C(=O)OC(C)(C)C)CC2)c1` [Example 229, tert-butyl 4-(2-fluoro-5-{[(3-methyl-5-{[5-(trifluoromethyl)pyrazin-2-yl]amino}-1,2-thiazol-4-yl)carbonyl]amino}phenoxy)piperidine-1-carboxylate], the IC50 in assay [1] and in assay [2] was greater than 20 µM in each case.

In the case of `Cc1nsc(Nc2cnc3ccccc3n2)c1C(=O)Nc1ccc(Oc2ccc(SC(F)(F)F)cc2)nc1` [Example 233, 3-methyl-5-(quinoxalin-2-ylamino)-N-(6-{4-[(trifluoromethyl)sulfanyl]phenoxy}pyridin-3-yl)-1,2-thiazole-4-carboxamide], the IC50 in assay [1] and in assay [2] was greater than 20 µM each time.

On to `Cc1nsc(Nc2ccc(C#N)cn2)c1C(=O)Nc1cccc(C(=O)OC(C)(C)C)c1` [Example 240, tert-butyl 3-[({5-[(5-cyanopyridin-2-yl)amino]-3-methyl-1,2-thiazol-4-yl}carbonyl)amino]benzoate], for which the IC50 in assay [1] and in assay [2] was greater than 20 µM throughout.

For `CNS(=O)(=O)c1ccc(NC(=O)c2c(C)nsc2Nc2cncc(C(F)(F)F)n2)cc1` [Example 211, 3-methyl-N-[4-(methylsulfamoyl)phenyl]-5-{[6-(trifluoromethyl)pyrazin-2-yl]amino}-1,2-thiazole-4-carboxamide], the IC50 turned out to be 15 µM in assay [1] and 4.3 µM in assay [2].

With `Cc1nsc(Nc2cnc3ccccc3n2)c1C(=O)Nc1ccccc1S(C)(=O)=O` [Example 188, 3-methyl-N-[2-(methylsulfonyl)phenyl]-5-(quinoxalin-2-ylamino)-1,2-thiazole-4-carboxamide], the IC50 in assay [1] and in assay [2] was greater than 20 µM each time.

Regarding `Cc1nsc(Nc2cnc3ccccc3n2)c1C(=O)Nc1ccc(C(=O)OC(C)(C)C)cc1` [Example 181, tert-butyl 4-({[3-methyl-5-(quinoxalin-2-ylamino)-1,2-thiazol-4-yl]carbonyl}amino)benzoate], the IC50 in assay [1] and in assay [2] was greater than 20 µM throughout.

On to `Cc1nsc(Nc2cnc(C(F)(F)F)cn2)c1C(=O)Nc1ccc(OCCN)nc1` [Example 197, N-[6-(2-aminoethoxy)pyridin-3-yl]-3-methyl-5-{[5-(trifluoromethyl)pyrazin-2-yl]amino}-1,2-thiazole-4-carboxamide], for which the IC50 in assay [1] is greater than 20 µM; in assay [2], 9.1 µM.

Take `CNS(=O)(=O)c1ccc(NC(=O)c2c(C)nsc2Nc2cnc(C(F)(F)F)cn2)cc1` [Example 212, 3-methyl-N-[4-(methylsulfamoyl)phenyl]-5-{[5-(trifluoromethyl)pyrazin-2-yl]amino}-1,2-thiazole-4-carboxamide]: the IC50 in assay [1] and in assay [2] was greater than 20 µM in each case.

For `Cc1nsc(Nc2cnc3ccccc3n2)c1C(=O)Nc1ccc(C(=O)O)cc1` [Example 187, 4-({[3-methyl-5-(quinoxalin-2-ylamino)-1,2-thiazol-4-yl]carbonyl}amino)benzoic acid], the IC50 was greater than 20 µM in assay [1] and 3.8 µM in assay [2].

Turning to `Cc1nsc(Nc2cnc3ccccc3n2)c1C(=O)Nc1ccc(NC2CCN(C(=O)OC(C)(C)C)CC2)nc1` [Example 234, tert-butyl 4-{[5-({[3-methyl-5-(quinoxalin-2-ylamino)-1,2-thiazol-4-yl]carbonyl}amino)pyridin-2-yl]amino}piperidine-1-carboxylate], the IC50 in assay [1] and in assay [2] was greater than 20 µM throughout.

Take `Cc1nsc(Nc2cncc(C(F)(F)F)n2)c1C(=O)Nc1ccc(OC2CCN(CCF)CC2)c(F)c1` [Example 223, N-(3-fluoro-4-{[1-(2-fluoroethyl)piperidin-4-yl]oxy}phenyl)-3-methyl-5-{[6-(trifluoromethyl)pyrazin-2-yl]amino}-1,2-thiazole-4-carboxamide]: the IC50 in assay [1] and in assay [2] was greater than 20 µM in each case.

On to `Cc1nsc(Nc2cnc3ccccc3n2)c1C(=O)Nc1ccc(NC(=O)C(C)(C)C)cc1` [Example 185, N-{4-[(2,2-dimethylpropanoyl)amino]phenyl}-3-methyl-5-(quinoxalin-2-ylamino)-1,2-thiazole-4-carboxamide], for which the IC50 in assay [1] and in assay [2] was greater than 20 µM throughout.

With `Cc1nsc(Nc2cncc(C(F)(F)F)n2)c1C(=O)Nc1ccc(OC2CCN(C(C)C)CC2)nc1` [Example 218, N-{6-[(1-isopropylpiperidin-4-yl)oxy]pyridin-3-yl}-3-methyl-5-{[6-(trifluoromethyl)pyrazin-2-yl]amino}-1,2-thiazole-4-carboxamide], the IC50 in assay [1] and in assay [2] was greater than 20 µM in each case.

As to `Cc1nsc(Nc2cncc(C(F)(F)F)n2)c1C(=O)Nc1ccc(F)c(C(N)=O)c1` [Example 204, N-(3-carbamoyl-4-fluorophenyl)-3-methyl-5-{[6-(trifluoromethyl)pyrazin-2-yl]amino}-1,2-thiazole-4-carboxamide], the IC50 in assay [1] was greater than 20 µM; in assay [2], > 20 µM and 16 µM.
